Assay [1] relates to vancomycin-resistant Enterococcus faecalis (VanA VRE, BM4166). The settings on record: BM 4166; previously reported data; cited from earlier work.
For assay [2], the system named is vancomycin-resistant Enterococcus faecalis (VanB VRE, strain ATCC 51299). The settings on record: previously reported data; cited from earlier work.
In assay [3] the test system is VanA VRE (E. faecalis BM 4166 and E. faecium ATCC BAA-2317). Kind of assay: Cell wall biosynthesis inhibition assay (accumulation of UDPMurNAc-pp 19). The settings on record: 35 μg/mL, tetracycline pretreated VanA VRE, 30 minutes, 37° C. It counts as cell-based, Enterococcus faecalis; Enterococcus faecium. An excerpt:
The inhibition of bacterial cell wall synthesis was established in an assay that quantitates the accumulation of the peptidoglycan precursor UDP-N-acetyl-muramyl-depsipentapeptide (Compound 19, UDPMurNAc-pp), resulting from inhibited cell wall incorporation following antibiotic treatment. […] This procedure was reduced in scale and modified to enlist reverse-phase HPLC separation, UV detection, and calibration curve determination of the amount of isolated 19, permitting use with limited sample sizes. A larger scale isolation and full characterization of 19 provided the material needed to establish a linear calibration curve.
The bacterial suspension was heated at 100° C. for 15 minutes to release cytosolic 19. The entire supernatant was analyzed by semi-preparative reverse-phase HPLC with a single injection and the amount of 19 was quantitated with use of the calibration curve.
Cultures of vancomycin-resistant Enterococcus faecalis (VanA VRE, BM4166) and Enterococcus faecium (VanA VRE, ATCC BAA-2317) were inoculated and grown in an orbital shaker at 37° C. in 100% brain-heart infusion broth for 12 hours. The above bacterial solution was subjected to a subculture to obtain fresh mid-log phase bacterial cells (total volume of bacterial suspension=5 mL, incubation time=6 hours, OD600=0.6). […] Vancomycin analogues were added and the mixture was incubated at 37° C. for a further 30 minutes.
After the bacteria were harvested (3000 rpm, 4° C., 20 minutes), this bacterial precipitate was washed and resuspended in 5 mM glucose and 5 mM HEPES buffer (500 μL, 1:1, pH=7.2). This bacterial suspension was heated at 100° C. for 15 minutes and centrifuged (13000 rpm, 25° C., 10 minutes). […] [*****Allen et al., Antimicrob. Agents Chemother. 1996, 40(10):2356-2362]; Liu et al., J. Am. Chem. Soc. 2001, 123:9916-9917.] The amount of UDP Mur N-Ac pentapeptide (19) was quantified by use of calibration curves for E. faecalis BM4166, and for E. faecium ATCC BAA-2317 based on the area under the curve (AUC).

Assay [4] relates to vancomycin-sensitive Staphylococcus aureus (VSSA strain ATCC 25923). The settings on record: previously reported data; cited from earlier work.
In assay [5] the test system is methicillin and oxacillin-resistant Staphylococcus aureus subsp. aureus (MRSA strain ATCC 43300). The settings on record: previously reported data; cited from earlier work.
Assay [6] deals with Enterococcus faecium (VanA VRE, ATCC BAA-2317). The settings on record: previously reported data; cited from earlier work.
Assay [7] concerns VanA VRE (E. faecalis BM 4166 and E. faecium ATCC BAA-2317). Kind of assay: Antimicrobial activity against VanA VRE (both strains). The format is cell-based, Enterococcus faecalis; Enterococcus faecium. An excerpt:
(§1) One day before a study was run, fresh cultures of vancomycin-sensitive Staphylococcus aureus (VSSA strain ATCC 25923), methicillin and oxacillin-resistant Staphylococcus aureus subsp. aureus (MRSA strain ATCC 43300), vancomycin-resistant Enterococcus faecalis (VanA VRE, BM4166), Enterococcus faecium (VanA VRE, ATCC BAA-2317), vancomycin-resistant Enterococcus faecalis (VanB VRE, strain ATCC 51299), Escherichia coli (ATCC 25922), Acinetobacter baumannii (ATCC BAA-1710), Pseudomonas aeruginosa (ATCC 15442), Klebsiella pneumoniae (ATCC 700603) were inoculated and grown in an orbital shaker at 37° C. in 100% Mueller-Hinton broth (VSSA, MRSA and VanB VRE), 100% brain-heart infusion broth (VanA VRE, A. baumannii and K. pneumoniae) or 100% Luria broth (E. coli and P. aeruginosa). After 24 hours, the bacterial stock solutions were serially diluted with the culture medium (10% Mueller-Hinton broth for VSSA, MRSA and VanB VRE or 10% brain-heart infusion broth for VanA VRE A. baumannii and K. pneumoniae or 10% Luria Broth for E. coli and P. aeruginosa) to achieve a turbidity equivalent to a 1:100 dilution of a 0.5 M McFarland solution. This diluted bacterial stock solution was then inoculated in a 96-well V-shaped glass coated microtiter plate, supplemented with serial diluted aliquots of the antibiotic solution in DMSO (4 μL), to achieve a total assay volume of 0.1 mL. The plate was then incubated at 37° C. for 18 hours, after which minimal inhibitory concentrations (MICs) were determined by monitoring the cell growth (observed as a pellet) in the wells.
(§2) The lowest concentration of antibiotic (in μg/mL) capable of eliminating cell growth in the wells is the reported MIC value. The reported MIC values for the vancomycin analogues were determined against vancomycin as a standard in the first well.*

The test system of assay [8] is vancomycin-resistant Enterococcus faecalis (VanA VRE, BM4166). Briefly: In vitro antimicrobial assay (MIC), VanA E. faecalis. It counts as cell-based.
Excerpt: as §1, §2
(§3) [*Clinical and Laboratory Standards Institute. Methods for Dilution Antimicrobial Susceptibility Tests for Bacteria That Grow Aerobically; Approved Standard, 7th ed.; CLSI document M07-A8; Clinical and Laboratory Standards Institute: Wayne, Pa., 2009.]

Assay [9] relates to Enterococcus faecium (VanA VRE, ATCC BAA-2317). Briefly: In vitro antimicrobial assay (MIC), VanA E. faecium. It counts as cell-based.
Excerpt: as §1, §2, §3

Assay [10] concerns VanA VRE (E. faecalis BM 4166 and E. faecium ATCC BAA-2317). Briefly: Cell wall permeability assay (propidium iodide uptake). It counts as cell-based, Enterococcus faecalis; Enterococcus faecium. The settings on record: 10 μM compound. An excerpt:
The effect of the compounds on cell membrane permeability was examined by measuring cytoplasmic membrane uptake of the fluorescent probe propidium iodide in the same VanA vancomycin-resistant E. faecalis (BM 4166) and E. faecium (ATCC BAA-2317) strains. This fluorescent probe only enters cells with permeabilized cell membranes and is detected by the emission of fluorescence upon intracellular nucleic acid binding [Boulos et al., J Microbiol Methods 1999, 37(1):77-86].
Fresh, mid-log phase VanA VRE in pH 7.2 buffer at 25° C. were preincubated with propidium iodide (10 μM) for 5 minutes before the test compounds were added, monitoring the fluorescence emission at 617 nm (excitation at 535 nm) over time, both pre (5 minutes) and post (15 minutes) compound addition. Rapid and sustained increases in fluorescence intensity are observed immediately upon addition of test compounds that induce bacterial cell membrane permeability.
One day before a study was run, cultures of vancomycin-resistant Enterococcus faecalis (VanA VRE, BM4166) and Enterococcus faecium (VanA VRE, ATCC BAA-2317), were inoculated and grown in an orbital shaker at 37° C. in 100% brain-heart infusion broth for 12 hours. The above bacterial solution was subjected to a subculture to obtain fresh mid-log phase bacterial cells (total volume of bacterial suspension=7 mL, incubation time=6 hours, OD600=0.6). After the cultured bacteria were harvested (3000 rpm, 4° C., 20 minutes), the white bacterial precipitate was washed and resuspended in 5 mM glucose and 5 mM HEPES buffer (1:1, 500 μL, pH=7.2).
This bacterial suspension (130 μL) was charged into a 96-well black plate with a clear bottom (Corning 3650). The propidium iodide dye (10 μL, 150 μM DMSO solution) was added to the above suspension and the fluorescence was monitored at 25° C. for 5 minutes at 30 second intervals using a microplate reader (Molecular Devices®, Max Gemini EX) at an excitation wavelength of 535 nm and an emission wavelength of 617 nm. The test compound (150 μM, 10 μL) was added to the cell suspension and the fluorescence was monitored at 25° C. for an additional 15 minutes.

≈ marks a conversion by molar mass, not a printed value. Entries after “also recorded” stand apart in the source; their conditions may differ. Read-outs that look alike come from different tables or passages of the source.

As to `CN[C@H](CC(C)C)C(=O)N[C@H]1C(=O)N[C@@H](CC(N)=O)C(=O)N[C@H]2C(=S)N[C@@H]3C(=O)N[C@H](C(=O)N[C@H](C(=O)O)c4cc(O)cc(O)c4-c4cc3ccc4O)[C@H](O)c3ccc(c(Cl)c3)Oc3cc2cc(c3OC2OC(CO)C(O)[C@H](O)[C@@H]2O[C@H]2CC(C)(N)[C@H](O)[C@H](C)O2)Oc2ccc(cc2Cl)[C@H]1O` (stereo partly shown) [Compound 2], the “Antimicrobial Activity, MIC, VanA E. faecalis” value in [1] is more than 32 µg/mL. In addition, the “Antimicrobial Activity, MIC, VanB E. faecalis” value in [2] was more than 32 µg/mL. The “inhibition of bacterial cell wall synthesis (accumulation of 19)” value (“inhibition” for short) in [3] was “do not effectively inhibit bacterial cell wall synthesis”. Besides, in assay [4], the “Antimicrobial Activity, MIC, sensitive S. aureus” value was more than 32 µg/mL. For the same compound, in assay [5], the “Antimicrobial Activity, MIC, MRSA S. aureus” value was more than 32 µg/mL. For the same compound, the “Antimicrobial Activity, MIC, VanA E. faecium” value in assay [6] was more than 32 µg/mL.
As for `CCCCCCCCCCCCCC[N+](C)(C)CCCNC(=O)[C@H]1NC(=O)[C@H]2NC(=O)[C@@H](NC[C@@H]3NC(=O)[C@H](CC(N)=O)NC(=O)[C@H](NC(=O)[C@@H](CC(C)C)NC)[C@H](O)c4ccc(c(Cl)c4)Oc4cc3cc(c4OC3OC(CO)C(O)[C@H](O)[C@@H]3O[C@H]3CC(C)(N)[C@H](O)[C@H](C)O3)Oc3ccc(cc3Cl)[C@H]2O)c2ccc(O)c(c2)-c2c(O)cc(O)cc21` (stereo partly shown) [Compound 13], the “MIC against VanA VRE” value in [7] (both VanA VRE strains) is 0.16 µg/mL. In assay [7] (relative to Compound 4), the “fold more potent than pocket analog 4 against VanA VRE” value is reported as 200 fold. For the same compound, the “fold more potent than C14-vancomycin (12) against VanA VRE” value in [7] (relative to Compound 12) is given as more than 10 fold. The “fold more potent than vancomycin against VanA VRE” value in [7] (relative to vancomycin (1)) is more than 1000 fold. The “Antimicrobial Activity, MIC, VanA E. faecalis” value in assay [8] (BM 4166) was 0.16 µg/mL. Moreover, the “inhibition” value in assay [3] is on record as “equally active”. Further, in [9] (ATCC BAA-2317), the “Antimicrobial Activity, MIC, VanA E. faecium” value was found to be 0.16 µg/mL. Moreover, the “induced cell membrane permeability (propidium uptake)” value in [10] was “produced pronounced cell membrane permeability immediately upon addition”.
For orientation: MIC means the lowest concentration that inhibits growth of the organism. For `CNC(CC(C)C)C(=O)NC1C(=O)NC(CC(N)=O)C(=O)NC2CNC3C(=O)NC(C(=O)NC(C(=O)O)c4cc(O)cc(O)c4-c4cc3ccc4O)C(O)c3ccc(c(Cl)c3)Oc3cc2cc(c3OC2OC(CO)C(O)C(O)C2OC2CC(C)(N)C(O)C(C)O2)Oc2ccc(cc2Cl)[C@@H]1O` (stereo partly shown) [Compound 4, [Ψ[CH2NH] Tpg^4]vancomycin], the MIC came out at 31 µg/mL (≈ 21.6 µM) in assay [7] (Enterococcus, read-out: MIC against VanA VRE); 31 µg/mL (≈ 21.6 µM) in assay [8] (Enterococcus faecalis, VRE, read-out: Antimicrobial Activity, MIC, VanA E. faecalis); 31 µg/mL (≈ 21.6 µM) in [9] (Enterococcus faecium, read-out: Antimicrobial Activity, MIC, VanA E. faecium). The “Antimicrobial Activity, MIC, VanA E. faecalis” value in assay [1] is 31 µg/mL. Also, the “inhibition” value in assay [3] was “inhibits bacterial cell wall biosynthesis; also recorded: equally active”. Besides, in [6], the “Antimicrobial Activity, MIC, VanA E. faecium” value is 31 µg/mL.
For the compound `CN[C@H](CC(C)C)C(=O)N[C@H]1C(=O)N[C@@H](CC(N)=O)C(=O)N[C@H]2C(=N)N[C@@H]3C(=O)N[C@H](C(=O)N[C@H](C(=O)O)c4cc(O)cc(O)c4-c4cc3ccc4O)[C@H](O)c3ccc(c(Cl)c3)Oc3cc2cc(c3OC2OC(CO)C(O)[C@H](O)[C@@H]2O[C@H]2CC(C)(NCc3ccc(-c4ccc(Cl)cc4)cc3)[C@H](O)[C@H](C)O2)Oc2ccc(cc2Cl)[C@H]1O` (stereo partly shown) [Compound 7], in assay [1], the “Antimicrobial Activity, MIC, VanA E. faecalis” value is 0.005 µg/mL. The “Antimicrobial Activity, MIC, VanB E. faecalis” value in assay [2] was 0.06 µg/mL. Moreover, in assay [4], the “Antimicrobial Activity, MIC, sensitive S. aureus” value was 0.03 µg/mL. In assay [5], the “Antimicrobial Activity, MIC, MRSA S. aureus” value was 0.06 µg/mL. The “Antimicrobial Activity, MIC, VanA E. faecium” value in assay [6] was 0.005 µg/mL.

(Values after patent US10934326B2, “Peripheral modifications on pocket-redesigned vancomycin analogs synergistically improve antimicrobial potency and durability” (priority 2016, dated 2021).)
